Data published in US7592143B2, “Methods of treating diseases responsive to induction of apoptosis and screening assays” (Cytovia, Inc., priority 2003, dated 2009).

Assays:
Transferrin Receptors = Transferrin Receptors (Homo sapiens, UniProt P02786); experiment: Transferrin receptor binding assay of small molecules: inhibition of biotin-GA binding; settings: 0.75 h; Compounds tested at 20 μM; biotin-GA kept at 1 μM
Description: The assay was run similar as described in Example 38. Wells of a 96-well assay plate were coated with 500 ng of HTR in 100 μl of PBS per well overnight at 4° C. These were washed twice with 200 μl of PBS and incubated with 200 μl of 1% BSA solution in PBS and washed twice with 200 μl of PBS. 100 μl of 1 μM biotin-GA solution in binding buffer (PBS/0.1% BSA/0.1% Tween-20) was added per well and incubated for 45 minutes at room temperature. For competition of binding assays biotin-GA was pre-mixed with indicated compounds at various concentrations. Final concentration of DMSO in binding mixtures was adjusted to 1% v/v. Wells were washed 4 times with 200 μl of binding buffer. 100 μl of 100 ng/ml Eu-labeled streptavidin solution in binding buffer were added per well and incubated for 45 minutes at room temperature. Wells were washed twice with 200 μl of binding buffer and twice with 200 μl of PBS. 100 μl of DELFIA Enhancement Solution were added per well and incubated for 10 minutes at room temperature. Plates were read on a Wallac Victor plate reader (Wallac-PerkinElmer Life Sciences) using delayed fluorescence Eu protocol at default manufacturer's settings.
Coated wells with no competing agent added were used to determine total binding (T). Non-coated wells were used to determine background binding (B). Background binding was consistently lower than 20%. Inhibition of binding was calculated as I=(T−BC)/(T−B)*100%, where BC was a reading corresponding to a well with a competing compound C added.
Other controls included assays of Biotin-GA binding to the wells coated with 500 μg/well of BSA or mouse Immunoglobulin G, the secondary reagent (Eu-labeled streptavidin) alone binding to the wells coated with […].

T-47D = experiment: Caspase cascade activation and induction of apoptosis in solid tumor cells; format: cell-based, Human; settings: 48 h incubation; for Caspase activity (Ratio): ratio of net RFU of test compound to control; for EC50: Homo sapiens, T47D, read-out: Caspase potency EC50; for EC50 / Caspase potency EC50 (nM): 0.016 to 10 μM
Description: Human breast cancer cell lines T-47D and DLD-1 were grown according to media component mixtures designated by American Type Culture Collection +10% FCS (Invitrogen Corporation), in a 5% CO2-95% humidity incubator at 37° C. T-47D and DLD-1 cells were maintained at a cell density between 50 and 80% confluency at a cell density of 0.1 to 0.6×10^6 cells/mL. Cells were harvested at 600×g and resuspended at 0.65×10^6 cells/mL into appropriate media +10% FCS. An aliquot of 22.5 μL of cells was added to a well of a 384-well microtiter plate containing 2.5 μL of a 10% DMSO in RPMI-1640 media solution containing 0.16 to 100 μM of test compound (0.016 to 10 μM final). An aliquot of 22.5 μL of cells was added to a well of a 384-well microtiter plate containing 2.5 μL of a 10% DMSO in RPMI-1640 media solution without test compound as the control sample. The samples were mixed by agitation and then incubated at 37° C. for 48 h in a 5% CO2-95% humidity incubator. After incubation, the samples were removed from the incubator and 25 μL of a solution containing 14 μM of N-(Ac-DEVD)-N′-ethoxycarbonyl-R110 (SEQ ID NO.: 41) fluorogenic substrate (Cytovia, Inc.; WO99/18856), 20% sucrose (Sigma), 20 mM DTT (Sigma), 200 mM NaCl (Sigma), 40 mM Na PIPES buffer pH 7.2 (Sigma), and 500 μg/mL lysolecithin (Calbiochem) was added. The samples were mixed by agitation and incubated at room temperature. Using a fluorescent plate reader (Model SPECTRAfluor Plus, Tecan), an initial reading (T=0) was made approximately 1-2 min after addition of the substrate solution, employing excitation at 485 nm and emission at 530 nm, to determine the background fluorescence of the control sample. After the 3 h incubation, the samples were read for fluorescence as above (T=3 h).
The Relative Fluorescence Unit values (RFU) were used to calculate the sample readings as follows: RFU(T=3h)−Control RFU(T=0)=Net RFU(T=3h)
The activity of caspase cascade activation was determined by the ratio of the net RFU value for test compound to that of control samples. The EC50 (nM) was determined by a sigmoidal dose-response calculation (Prism 3.0, GraphPad Software Inc.).

[1] = molecular target: T1, soluble human transferrin receptor (shTR) (Homo sapiens, UniProt P02786); experiment: Biotin-GA binding to plates coated with soluble human transferrin receptor, Eu-streptavidin detection
T1 construct: soluble human transferrin receptor (shTR); purchased Merck Biosciences, Schwalbach, Germany
T1 sequence (P02786 101-760 limits assumed): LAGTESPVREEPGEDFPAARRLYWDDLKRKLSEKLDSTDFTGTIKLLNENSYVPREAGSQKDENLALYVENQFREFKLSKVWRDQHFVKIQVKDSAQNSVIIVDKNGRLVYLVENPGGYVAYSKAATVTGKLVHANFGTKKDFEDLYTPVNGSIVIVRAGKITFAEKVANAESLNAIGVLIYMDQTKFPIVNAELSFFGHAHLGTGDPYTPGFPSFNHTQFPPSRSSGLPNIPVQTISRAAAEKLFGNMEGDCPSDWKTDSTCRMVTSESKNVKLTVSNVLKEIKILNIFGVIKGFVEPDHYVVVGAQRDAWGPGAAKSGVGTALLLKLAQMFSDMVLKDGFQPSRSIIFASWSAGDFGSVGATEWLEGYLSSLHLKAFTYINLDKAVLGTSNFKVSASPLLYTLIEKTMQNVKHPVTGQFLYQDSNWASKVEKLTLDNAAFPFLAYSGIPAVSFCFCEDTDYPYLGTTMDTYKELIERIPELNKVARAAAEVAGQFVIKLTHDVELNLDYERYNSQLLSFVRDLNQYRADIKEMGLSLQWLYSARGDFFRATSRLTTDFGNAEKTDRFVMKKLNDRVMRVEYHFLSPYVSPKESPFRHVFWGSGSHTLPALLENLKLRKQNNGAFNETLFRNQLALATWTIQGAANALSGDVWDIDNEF
Description: FIG. 1A. […] 96-well plates were coated with soluble human transferrin receptor (shTR) (SEQ ID NO. 1) at 375 ng/well and blocked with Bovine Serum Albumin (BSA). Wells were incubated with increasing concentrations of biotin-GA in binding/washing buffer for 20 min at 30° C. Eu-streptavidin was used for the detection. Amounts of bound Eu-Streptavidin were quantified by measuring time-delayed fluorescence. Confirmed in three independent experiments.
FIG. 1C. […] Separate control wells were probed with biotinylated holo-transferrin (bio-Trn) to control for TR retention and possible denaturation over long incubation times. Independently confirmed in three experiments.
FIG. 1D. […] Binding of Biotin-GA and tritium-GA to Jurkat cells (hatched) or in-vitro TfR-binding (solid) in the presence of 1 μM GA, 50 μg/ml of apo-transferrin or 50 μg/ml of holo-transferrin is shown in this graph. […]
96-well plates were coated with soluble human transferrin receptor (shTR) (Merck Biosciences, Schwalbach, Germany) at 375 ng/well and blocked with Bovine Serum Albumin (BSA). […] Amounts of bound Eu-Streptavidin were quantified after incubation with Enhancement Solution (Perkin-Elmer, Wellesey, Mass.) by measuring time-delayed fluorescence on a Wallac Victor plate reader (Perkin-Elmer, Wellesey, Mass.) according to manufacturer's protocol. […] Kd and competition EC50 values were calculated using PRIZM software. […]

T47D cells = experiment: Transferrin receptor internalization, FITC anti-transferrin receptor immunofluorescence; format: cell-based, human; settings: 2 μM GA for 10 or 30 min
Description: FIG. 2A. […] T47D cells were treated with DMSO or 2 μM GA for 10 min (panels A and C respectively) and DMSO or 2 μM GA for 30 min (panels B and D, respectively) and further treated with FITC conjugated anti-transferrin receptor for 30 mins at 37° C. The cells were then fixed with methanol at −20° C. for 5 min, washed with PBS and mounted with Vectashield mounting medium. Representative of three independently confirmed experiments.
For detecting internalization of fluorescent transferrin receptor, T47D cells were plated on glass cover slips in a 6-well plate at a density of 3×10^5 cells per well on the day before the experiment. Cells were pretreated with 2 μM GA for 10 min at 37° C. washed with PBS, and then labeled for 30 min with 1 μg/ml FITC-labeled mouse anti-human transferrin receptor (RDI, Flanders, N.J.) at 37° C. The cells were then fixed with methanol at −20° C. for 5 min, washed with PBS and mounted with Vectashield mounting medium (Hard set with DAPI, Vector Laboratories, Inc., Burlingame, Calif.).

Jurkat cells = experiment: Cell surface transferrin receptor expression by FACS; format: cell-based; settings: 5 μM GA for 5 min
Description: FIG. 2B. […] Jurkat cells were treated with holo-transferrin (50 μg/ml) or GA (5 μM) alone for 5 min or pretreat for 5 min with holo-transferrin followed by 5 min GA (5 μM) treatment. Cells were then stained with FITC-conjugated anti-transferrin receptor antibody for 30 minutes at 4° C. After washing, cells were analyzed on a Becton Dickinson FACS Calibur. Data is shown as mean flourescence units (mfu). Confirmed in three independent experiments.
FACS Analysis: For cell surface staining of transferrin receptor, cells were washed with PBS+1% BSA and stained with FITC-conjugated anti-transferrin receptor antibody (RDI, Flanders, N.J.) for 30 minutes at 4° C. After washing, cells were analyzed on a FACS Calibur (BD Biosciences, San Jose, Calif.) using Cellquest software.

Chain of Transferrin Receptors (P02786 whole entry): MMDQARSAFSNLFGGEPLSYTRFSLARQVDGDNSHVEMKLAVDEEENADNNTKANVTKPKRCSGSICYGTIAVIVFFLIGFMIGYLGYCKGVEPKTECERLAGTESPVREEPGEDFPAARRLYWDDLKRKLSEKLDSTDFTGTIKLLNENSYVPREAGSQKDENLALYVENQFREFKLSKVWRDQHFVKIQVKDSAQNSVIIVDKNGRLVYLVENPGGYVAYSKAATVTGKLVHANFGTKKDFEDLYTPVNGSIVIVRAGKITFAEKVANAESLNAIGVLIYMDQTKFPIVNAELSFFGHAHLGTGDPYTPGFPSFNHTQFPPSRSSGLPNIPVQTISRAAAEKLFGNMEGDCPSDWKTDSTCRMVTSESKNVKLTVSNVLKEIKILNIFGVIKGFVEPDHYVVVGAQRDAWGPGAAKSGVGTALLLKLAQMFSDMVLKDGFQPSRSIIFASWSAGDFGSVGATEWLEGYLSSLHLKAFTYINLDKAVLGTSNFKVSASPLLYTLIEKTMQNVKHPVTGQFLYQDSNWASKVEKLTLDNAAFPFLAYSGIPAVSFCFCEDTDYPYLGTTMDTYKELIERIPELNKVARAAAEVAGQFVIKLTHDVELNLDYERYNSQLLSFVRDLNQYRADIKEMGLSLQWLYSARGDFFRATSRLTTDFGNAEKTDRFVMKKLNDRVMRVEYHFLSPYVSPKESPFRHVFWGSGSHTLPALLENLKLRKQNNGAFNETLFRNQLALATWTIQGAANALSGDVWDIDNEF

| SMILES | inhibition at 20 µM (Transferrin Receptors) | Caspase activity (Ratio) (T-47D) | EC50 (T-47D) | Caspase potency EC50 (nM) (T-47D) | Binding to transferrin receptor in vitro (in words) ([1]; shTR 375 ng/well, increasing concentrations of biotin-GA) | Displacement of receptor-bound GA (in words) ([1]; shTR-coated wells incubated with biotin-GA, washed, then incubated with GA) | Transferrin receptor internalization (in words) (T47D cells) | Transferrin receptor internalization by cell surface receptor expression (in words) (Jurkat cells) |
| --- | --- | --- | --- | --- | --- | --- | --- | --- |
| CC(C)=CCC12OC(C)(C)C3CC(C=C4C(=O)C=C(c5ccccc5)OC431)C2=O (stereo not shown) [Example 31, 1-(3-Methyl-2-butenyl)-3,3-dimethyl-1,3,3a,4,5,10a-hexahydro-7,11-dioxo-9-phenyl-1,5-methano-furo[3,4-i]chromene] | 47% | 11.4 | 3.85 µM | – | – | – | – | – |
| C=CCC12OCC3CC(C=C4C(=O)c5ccccc5OC431)C2=O (stereo not shown) [Example 17, 1-Allyl-1,3,3a,4,5,12a-hexahydro-7,13-dioxo-1,5-methano-furo[3,4-d]xanthene] | 52% | 9.8 | 8.38 µM | – | – | – | – | – |
| C=CCC12CC3COC(CC=C)(C1=O)C3(CC=C)C=C2C(=O)c1ccccc1 (stereo not shown) [Example 28, 1,3,7-Triallyl-9-benzoyl-4-oxa-tricyclo[4.3.1.0^3,7]dec-8-en-2-one] | 8% | 1.3 | – | Inactive | – | – | – | – |
| C=CCC12OCC3CC4(Oc5ccccc5C(=O)C4=CC31)C2=O (stereo not shown) [Example 18, 1-Allyl-1,3,3a,4,4a,11a-hexahydro-10,12-dioxo-1,4a-methano-furo[3,4-b]xanthene] | 42% | 2.9 | 6.6 µM | – | – | – | – | – |
| CC(C)=CCC12OC(C)(C)C3CC4(Oc5ccccc5C(=O)C4=CC31)C2=O (stereo not shown) [Example 23, 1-(3-Methyl-2-butenyl)-3,3-dimethyl-1,3,3a,4,4a,11a-hexahydro-10,12-dioxo-1,4a-methano-furo[3,4-b]xanthene] | 59% | 14.1 | 3.73 µM | – | – | – | – | – |
| C=CCC12OCC3CC(CC4C(=O)c5ccccc5OC341)C2=O (stereo not shown) [Example 19, 1-allyl-1,3,3a,4,5,6,6a,12a-octahydro-7,13-dioxo-1,5-methano-furo[3,4-d]xanthene] | 0% | 1.0 | – | Inactive | – | – | – | – |
| C=CCC12C=C(C(=O)c3ccccc3)C3(CC=C)C(COC3(CC=C)C1=O)C2 (stereo not shown) [Example 27, 1,3,7-Triallyl-8-benzoyl-4-oxa-tricyclo[4.3.1.0^3,7]dec-8-en-2-one] | 11% | 1.5 | – | Inactive | – | – | – | – |
| CC(C)=CCC[C@]1(C)C=Cc2c(O)c3c(c(CC=C(C)C)c2O1)O[C@]12C(=C[C@@H]4C[C@H]1C(C)(C)O[C@@]2(C/C=C(/C)C(=O)O)C4=O)C3=O [GA, Gambogic acid] | – | – | – | – | binds transferrin receptor in vitro | can be displaced by active GA derivatives | interferes with receptor internalization | interferes with transferrin receptor (SEQ ID NO. 1) internalization |
| CC(C)=CCC12OC(C)(C)C3CC(C=C4C(=O)c5ccccc5OC431)C2=O (stereo not shown) [Example 22, 1-(3-Methyl-2-butenyl)-3,3-dimethyl-1,3,3a,4,5,12a-hexahydro-7,13-dioxo-1,5-methano-furo[3,4-d]xanthene] | 51% | 9.9 | 4.02 µM | – | – | – | – | – |
| CC(C)=CCC12OC(C)(C)C3CC4(OC(c5ccccc5)=CC(=O)C4=CC31)C2=O (stereo not shown) [Example 32, 1-(3-Methyl-2-butenyl)-3,3-dimethyl-1,3,3 a,4,4a,9a-hexahydro-8,10-dioxo-6-phenyl-1,4a-methano-furo[3,4-g]chromene] | 61% | 10.6 | 3.09 µM | – | – | – | – | – |
